Assays:
Format in all cases: in vivo, rat
[1] = Food/water intake and body weight in 24-hour food-deprived rats, IP administration; details: for body weight gain: vehicle 20 g
Description: An in vivo assessment of GPR6 inverse agonist was accomplished by determining the effects of ARE112 on food intake after food deprivation in rats. Food deprivation was used to induce higher than normal eating behavior (e.g., controlvehicle-treated animals were hyperphagic).
The animals (male Sprague-Dawley rats were used for the following experiments) were food deprived for 24 hr, and then injected intraperitoneally (IP) with 0, 6.75, 13.5, 27 and 54 mg/kg of compound ARE112. After 30 min, rats were introduced to standard rat chow pellets and observed thereafter for a period of 6.5 hours post-injection.

[2] = Basal food/water intake and body weight in non-food deprived rats, IP administration; details: for food consumed over a period of 4 hrs: dark cycle, vehicle 9 g
Description: In this test, animals were not deprived of food but were instead observed for normal activity.
Animals were administered ARE112 at 0, 6.75, 13.5, 27 and 54 mg/kg, IP 30 min prior to the beginning of their dark cycle (i.e. 6:30 pm) and were then exposed to standard rat chow pellets (i.e. 30 min after compound administration) and observed for a period of 15.5 hr post administration. […] For example, the vehicle treated animals consumed 9 g of food over a period of 4 hrs, whereas animals treated with dose of 13.5 mg/kg and 54 mg/kg consumed less than half this amount over this same period (4 and 2 g of food, respectively). […] (See, FIGS. 6B and 6C).

[3] = Long-term (60 days) body weight, daily repeated IP administration, non-food deprived rats; details: 13.5 mg/kg IP once a day for 22 days, assessed for 60 days
Description: Long-term effects (60 days) of ARE112 were also examined. Animals (treatment, n=4; control, n=5) were treated once a day intraperitoneally with ARE112 for 22 days and assessed for a period of 60 days. On days 1 to 3, animals treated with dose of 13.5 mg/kg initially lost body weight and between day 4 and day 31, animals gradually gained weight, although still weighing less than vehicle treated animals. […] See, FIG. 11.

[4] = Intracerebroventricular (ICV) administration on 24-hour food-deprived rats; details: for water drunk: comparable to vehicle
Description: Animals were prepared with an ICV cannula aimed above the lateral ventricle. For this surgery, animals were placed under general anesthesia using continuous inhalation of isoflurane and secured in a Kopf stereotaxic instrument. Surgery was performed in a dedicated surgery room, using sterile instruments, surgical gloves and aseptic procedures to prevent clinical infections. The surgical site was shaved and disinfected with betadine solution and alcohol. Animals were observed continuously for the level of anesthesia by testing for the animals' responses to tail- or paw-pinch. A cannula made of 23 gauge stainless steel tubing (7 mm long) was lowered to a point 1 mm above the ventricle, using coordinates: A/P−0.6 mm from bregma, M/L+/−2.0 mm from bregma, D/V 3.2 mm below skull surface. The guide was anchored to the skull with three stainless steel screws and dental cement. Coordinates were based on stereotaxic atlas such as Paxinos and Watson sterotaxic atlas (Paxinos, G. and Watson, C, The Rat Brain, New York, Academic Press, 1982). After cannula implantation, a 30-gauge stainless steel dummy stylet was inserted into the cannula. At the conclusion of surgery, a heat source (heat lamp directed towards one half of recovery cage) was used to maintain body temperature while the animals recovered from anesthesia. Animals were allowed at least one week of recovery after surgery before ICV injection of compound was performed.
Animals were food-deprived for 24 hours prior to administration of the compound.
For ICV injection, the dummy stylet was removed from the implanted cannula, and a 30-gauge stainless steel injector cannula containing ARE112 suspension in a 45% cyclodextrin solution was inserted to a depth 1.5 mm beyond the ventral tip of the implanted cannula. The other (noninserted) end of the injector cannula was attached to 60 cm of PE10 tubing containing the compound suspension, which was attached at the free end of tubing to a 25 μl Hamilton syringe. Ten microliters of ARE112 suspension (containing, 0, 25, 50, and 100 nmol) were then delivered via gentle and even mechanical pressure to the plunger of the Hamilton syringe. The volume of injection was verified by marks on the PE 10 tubing previously calibrated with a 10 μl Hamilton syringe. At the conclusion of injection, any fluid observed from the dorsal tip of the implanted cannula upon withdrawal of the injector cannula was noted, and the dummy stylet was inserted into the implanted cannula.

[5] = Locomotor activity cages (motor function); details: IP
Description: The effect of ARE112 on motor function was also examined. Motor function was assessed by using automated locomotor activity cages. Animals were placed in a standard rodent cage surrounded by photocell, which allowed for automated recording of motor activity. Animals were under no motivational constraints and were free to move around the cage.
Male Sprague-Dawley rats (n=4-9 per dose) were administered ARE112 (IP) prior to placement into in locomotor activity cages.

[6] = Startle reflex in non-food deprived rats, oral administration; details: […] prior to testing, 12 db pre-pulse then 120 db pulse
Description: As further evidence of this mild sedative activity, animals were measured to determine their startle reflexes. In this assay, ARE112 was orally administered in non-food deprived rats 4.5 hours prior to testing. Animals were subjected to a pre-pulse of 12 db followed by a 120 db pulse and subsequently measured for the height in which the animals jumped.

[7] = Food intake in non-food deprived rats, oral gavage
Description: In a second assay, rats were treated with ARE112 by oral gavage but were not food deprived. Data evidence an even greater decrease in food intake, such that at 18 hours post administration of the compound, the vehicle rats had consumed about 15 grams of food while the injected rats (at all doses) ate 5 grams or less; about a three fold decrease in food consumption when treated with compound ARE112. (See, FIG. 9B).

locomotor activity ([5]; 1.5 hour immediately after injection): does not affect locomotor activity
locomotor activity ([5]; 16 hours post-injection): decreases locomotor activity
startle reflex (height jumped) ([6]; 13.5 mg/kg oral): did not jump as high
startle reflex (height jumped) ([6]; 54 mg/kg oral): did not jump as high
Structure (SMILES): O=C(N=C1SSC2=NCCN21)c1cccs1 [ARE112, N-(5,6-dihydro-3H-imidazo[2,1-c]-1,2,4-dithiazol-3-ylidene)-thiophen-2-carboxamide]
body weight gain ([1]; 13.5 mg/kg IP): 11 g
body weight gain ([1]; 27 mg/kg IP): no weight gain
decrease in water intake ([1]; 54 mg/kg IP): 5 fold
food consumed (cumulative food intake) ([1]; 54 mg/kg IP, 1.5 hours after injection, vehicle about 6 grams): 3 g
food consumed (cumulative food intake) ([1]; 54 mg/kg IP, 6.5 hours post-injection, vehicle up to 14 g): 4 g
body weight gain ([1]; 54 mg/kg IP): no weight gain
food consumed over a period of 4 hrs ([2]; 13.5 mg/kg IP): 4 g
food consumed over a period of 4 hrs ([2]; 54 mg/kg IP): 2 g
body weight gain ([2]; IP, non-deprived rats): decrease
water intake ([2]; IP, non-deprived rats): decrease
body weight, long-term [3]: long-term decrease in body weight
water drunk ([4]; 25 nmol ICV): about 17 grams
water drunk ([4]; 50 nmol ICV): about 17 grams
water consumed ([4]; 100 nmol ICV, relative to about 17 grams): less than half that amount
weight gained ([4]; 100 nmol ICV, vehicle about 12 grams): 5 grams
food consumed ([4]; after three hours, ICV, vehicle about 2.5 grams): ≤ 1.0 grams
less food consumed than vehicle ([4]; two hours post-administration, all doses (25, 50, 100 nmol ICV)): about 6 fold
oral activity ([7]; 6.75 to 54 mg/kg): orally active
decrease in food consumption ([7]; 18 hours post administration): three
food consumed ([7]; all doses, 18 hours post administration, vehicle about 15 grams): ≤ 5 grams

Source: patent publication US6420563B1, “Small molecule modulators of G protein-coupled receptor six” (Arena Pharmaceuticals, Inc., priority 1998, dated 2002)
